From patent US20240109912A1, “TRICYCLIC PYRIMIDINES AS CYCLIN-DEPENDENT KINASE 7 (CDK7) INHIBITORS” (JANSSEN PHARMACEUTICA NV, priority 2020, published 2024)
“And” between values parts separate entries of the source, which are not always exact repeats. Equal values may be shown once. Read-outs that look alike come from different tables or passages of the source.

Legend:
[1] = tested on: RNA polymerase II Serine 5 phosphorylation in A549 cells overexpressing CDK7 mutant (C312S); assay: Imaging-based cellular RNA PolII Ser5 phosphorylation assay in A549 cells overexpressing CDK7-mutant (C312S); type: cell-based, human; settings: for IC50: Homo sapiens, A549, A549 cells overexpressing CDK7 mutant (C312S), read-out: CDK7_ A549 mutant hCDK7(pIC50) (converted); for CDK7_ A549 mutant hCDK7(pIC50): A549 cells overexpressing CDK7 mutant (C312S)
Method: Data were calculated and analyzed in Phaedra.
From this an IC50 value can be obtained.
In parallel this assay was performed in A549 cells overexpressing CDK7-mutant (C312S) to evaluate the effect of the covalent bond on potency and to screen for potential off-target effects. Mutation of Cysteine to Serine (C312S), a less nucleophilic amino acid, prevents CDK7 inhibitors from covalently binding to CDK7 and from inhibiting CDK7 activity in an irreversible manner. A stably transduced A549 cell pool was generated that overexpresses CDK7 mutant (C312S), but also expresses endogenous CDK7-WT. Covalent binders targeting the cysteine at position 312 will show a shift in potency in A549 cells overexpressing mutant C312S CDK7.

[2] = target: CDK7/cyclinH/MAT1 trimeric complex (Homo sapiens (Human), UniProt P50613); assay: In vitro CDK7 assay, potency of irreversible covalent inhibitors (kinact/KI)
[3] = tested on: RNA polymerase II Serine 5 phosphorylation (CDK7) in A549 cells
[4] = CDK7 (20 nM enz.) (KI, μM), 20 nM enz.
[5] = read-out: CDK7 (20 nM enz.) (kinact, s^−1), 20 nM enz.
[6] = read-out: CDK7 (20 nM enz.) (kinact/ KI, M^−1*s^−1), 20 nM enz.
[7] = read-out: CDK7 (kinact, s^−1), Table B
[8] = read-out: CDK7 (kinact/KI, M^−1*s^−1), Table B

Chain of CDK7/cyclinH/MAT1 trimeric complex (P50613 whole entry): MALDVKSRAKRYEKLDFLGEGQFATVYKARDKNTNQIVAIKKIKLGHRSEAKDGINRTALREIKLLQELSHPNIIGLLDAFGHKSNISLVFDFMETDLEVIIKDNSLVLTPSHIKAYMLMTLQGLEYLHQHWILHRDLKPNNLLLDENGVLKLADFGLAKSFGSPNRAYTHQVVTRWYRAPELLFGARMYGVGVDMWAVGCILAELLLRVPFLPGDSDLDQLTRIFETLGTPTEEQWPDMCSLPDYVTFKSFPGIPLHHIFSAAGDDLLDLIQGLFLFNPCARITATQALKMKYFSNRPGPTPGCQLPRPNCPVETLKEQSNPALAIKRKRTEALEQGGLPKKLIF
Chain of CDK7/cyclinH/MAT1 trimeric complex (P51946 whole entry partner): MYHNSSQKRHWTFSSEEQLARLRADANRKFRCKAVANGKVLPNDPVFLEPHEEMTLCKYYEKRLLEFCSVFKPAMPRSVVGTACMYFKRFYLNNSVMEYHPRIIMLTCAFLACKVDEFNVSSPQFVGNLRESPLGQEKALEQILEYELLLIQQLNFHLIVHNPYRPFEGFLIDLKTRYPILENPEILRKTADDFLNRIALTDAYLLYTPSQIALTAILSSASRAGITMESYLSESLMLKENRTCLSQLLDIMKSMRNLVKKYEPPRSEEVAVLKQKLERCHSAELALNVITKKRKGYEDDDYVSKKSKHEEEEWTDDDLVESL
Chain of CDK7/cyclinH/MAT1 trimeric complex (P51948 whole entry partner): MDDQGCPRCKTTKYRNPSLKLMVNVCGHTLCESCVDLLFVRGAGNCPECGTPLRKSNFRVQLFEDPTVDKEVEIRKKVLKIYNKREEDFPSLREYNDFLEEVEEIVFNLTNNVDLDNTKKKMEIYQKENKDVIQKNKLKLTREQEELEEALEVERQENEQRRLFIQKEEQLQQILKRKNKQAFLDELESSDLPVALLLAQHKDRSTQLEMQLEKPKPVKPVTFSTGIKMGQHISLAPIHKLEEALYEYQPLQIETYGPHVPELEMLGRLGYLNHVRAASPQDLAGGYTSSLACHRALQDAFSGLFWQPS

SMILES	IC50 [1] [nM]	Ki [2, 4]	kinact [2, 5] [s⁻¹]	kinact/KI [2, 6] [M⁻¹ s⁻¹]	IC50 [3]	CDK7 (20 nM enz.) (kinact, s^−1) ([2]; 20 nM enz.)	CDK7 (20 nM enz.) (kobs/[I], M^−1*s^−1) ([2]; 20 nM enz.) [M⁻¹ s⁻¹]	kinact/KI ([2]; read-out: CDK7 (20 nM enz.) (kobs/[I], M^−1*s^−1), 20 nM enz.) [M⁻¹ s⁻¹]	CDK7 (20 nM enz.) (kinact/ KI, M^−1*s^−1) ([2]; 20 nM enz.) [M⁻¹ s⁻¹]	Ki ([2]; CDK7 (KI(μM)), Table B) [µM]	kinact [2, 7] [s⁻¹]	kinact/KI [2, 8] [M⁻¹ s⁻¹]	CDK7_ A549 mutant hCDK7(pIC50) [1]
CC#CC(=O)N1CC(N2CCC(c3cc(C)c4c(c3)Nc3ncnc(N5CCS(=O)(=O)CC5)c3[C@@H](C)O4)CC2)C1 [compound 148]	> 10000	0.0218 µM and 0.0473 µM and 0.0348 µM and 0.00601 µM	4.04e-05		42.7 nM and 60.3 nM and 75.9 nM and 63.1 nM and ~61.7 nM	6.08e-05 s⁻¹ and 5.32e-05 s⁻¹ and 4.3e-05 s⁻¹	1230.83	952					
CC#CC(=O)N1CCC(N2CCN(c3cc(C)c4c(c3)Nc3ncnc(N5CCS(=O)(=O)CC5)c3[C@@H](C)O4)CC2)CC1 [compound 154]	> 10000	0.00416 µM	5.87e-05	14100	~53.7 nM								
C=CC(=O)N1CC(N2CC[C@@H](c3cc4c(c(C)n3)OCc3c(ncnc3N3CCS(=O)(=O)CC3)N4)C2)C1 [compound 30]	> 10000	0.175 µM	5.79e-05	330	1510 nM								
C#Cc1cc(C2CCN(C3CN(C(=O)C#CC)C3)CC2)cc2c1O[C@H](C)c1c(ncnc1N1CCS(=O)(=O)CC1)N2 [compound 192]	> 10000	0.856 µM	8.38e-05	103	457 nM								
CC#CC(=O)N1CC(N2CCC(c3cc(C)c4c(c3)Nc3ncnc(N5CCS(=O)(=O)CC5)c3[C@H](C)O4)CC2)C1 (single isomer, unassigned) [compound 150]	> 10000	0.283 µM and 0.18 µM	6.55e-05	231	316 nM and 457 nM	4.7e-05 s⁻¹			261.659				
C=CC(=O)N1CC(N2CCN(c3ccc4c(c3)Nc3ncnc(N5CCOCC5)c3CO4)CC2)C1 [compound 6]	> 10000				3800 nM					2.73	0.000504	185	
C#Cc1cc(C2CCN(C3CN(C(=O)C=C)C3)CC2)cc2c1O[C@H](C)c1c(ncnc1N1CCS(=O)(=O)CC1)N2 (single isomer, unassigned) [compound 189]	> 10000	0.0806 µM	8.1e-05	879	195 nM and 200 nM								
C=CC(=O)N1CC(N2CCC(c3cc4c(cn3)O[C@H](C)c3c(ncnc3N3CCOCC3)N4)CC2)C1 (single isomer, unassigned) [compound 83]		0.059 µM			138 nM	2.22e-05 s⁻¹			376.933				<5.4
C=CC(=O)N1CC(N2CC(c3cc(C)c4c(c3)Nc3ncnc(-c5cnn(C)c5)c3[C@@H](C)O4)C2)C1 (single isomer, unassigned) [compound 109]	> 10000	0.13 µM	4.5e-05	345	363 nM								
CC#CC(=O)N1CC(N2CCN(c3cc(C)c4c(c3)Nc3ncnc(N5CCS(=O)(=O)CC5)c3[C@@H](C)O4)CC2)C1 [compound 155]	> 10000	0.00172 µM	2.06e-05	12200	214 nM								
C=CC(=O)N1CC(N2CC[C@H](c3cc4c(c(C)n3)OCc3c(ncnc3N3CCS(=O)(=O)CC3)N4)C2)C1 [compound 31]	> 10000	0.226 µM	5.87e-05	260	2750 nM								
C#Cc1cc(C2CN([C@H]3CCN(C(=O)C=C)C3)C2)cc2c1O[C@@H](C)c1c(ncnc1N1CCS(=O)(=O)CC1)N2 [compound 194]	> 10000	0.0177 µM	2.42e-05	1370	158 nM								
C=CC(=O)N1CC[C@H](N2CC(c3cc4c(c(C)n3)OCc3c(ncnc3N3CCS(=O)(=O)CC3)N4)C2)C1 (single isomer, unassigned) [compound 78]	> 10000	0.168 µM	3.85e-05	229	5370 nM								
C=CC(=O)N1CC(N2CCC(c3ccc4c(c3)Nc3ncnc(N5CCOCC5)c3[C@H](C)O4)CC2)C1 (single isomer, unassigned) [compound 57]	> 10000	0.0876 µM	7.7e-05	879	263 nM								
C=CC(=O)N1CC(N2CCC(c3ccc4c(c3)Nc3ncnc(-c5ccc(=O)n(C)c5)c3CO4)CC2)C1 [compound 8]	> 10000				5500 nM					0.251	0.000188	749	

More lines, now with the values ahead:

IC50 [1] [nM]	Ki [2, 4]	kinact [2, 5] [s⁻¹]	kinact/KI [2, 6] [M⁻¹ s⁻¹]	IC50 [3]	CDK7 (20 nM enz.) (kinact, s^−1) ([2]; 20 nM enz.)	CDK7 (20 nM enz.) (kobs/[I], M^−1*s^−1) ([2]; 20 nM enz.) [M⁻¹ s⁻¹]	kinact/KI ([2]; read-out: CDK7 (20 nM enz.) (kobs/[I], M^−1*s^−1), 20 nM enz.) [M⁻¹ s⁻¹]	CDK7 (20 nM enz.) (kinact/ KI, M^−1*s^−1) ([2]; 20 nM enz.) [M⁻¹ s⁻¹]	Ki ([2]; CDK7 (KI(μM)), Table B) [µM]	kinact [2, 7] [s⁻¹]	kinact/KI [2, 8] [M⁻¹ s⁻¹]	CDK7_ A549 mutant hCDK7(pIC50) [1]	SMILES
> 10000	0.175 µM	7.35e-05	420	245 nM									C=CC(=O)N1CC(N2CCC(c3cc4c(c(C5CC5)c3)OCc3c(ncnc3N3CCOCC3)N4)CC2)C1 [compound 47]
> 10000	0.32 µM	5.08e-05	159	~1020 nM									C=CC(=O)N1CC(N2CC(c3cc(C)c4c(c3)Nc3ncnc(N5CCOCC5)c3C(C)O4)C2)C1 (centres unmarked) [compound 103]
> 10000	0.0781 µM and 0.315 µM	5.64e-05		275 nM and 234 nM	8.3e-05 s⁻¹								C=CC(=O)N1CC[C@@H](N2CCC(c3cc(C)c4c(c3)Nc3ncnc(N5CCOCC5)c3CO4)CC2)C1 [compound 13]
> 10000		3.36e-06		9120 nM									C=CC(=O)N1CC(N2CCC(c3cc(C)c4c(c3)Nc3ncnc(N5CCC(CCO)C5)c3CO4)CC2)C1 (centres unmarked) [compound 113]
> 10000	0.643 µM	8.79e-05	137	324 nM									C=CC(=O)N1CC[C@@H](N2CCC(c3cc(F)c4c(c3)Nc3ncnc(N5CCOCC5)c3CO4)CC2)C1 (single isomer, unassigned) [compound 51]
> 10000	0.302 µM	7.72e-05	256	200 nM									C=CC(=O)N1CC[C@H](N2CCC(c3cc(F)c4c(c3)Nc3ncnc(N5CCOCC5)c3CO4)CC2)C1 (single isomer, unassigned) [compound 50]
> 10000	1.1 µM	6.3e-05	57.2	1580 nM									C=CC(=O)N1CC(N2CCC(c3cc(C)c4c(c3)Nc3ncnc(N5CCC(C#N)CC5)c3CO4)CC2)C1 [compound 69]
8910	0.0411 µM	3.59e-05	874	288 nM									C=CC(=O)N1CCC(N2CCC(c3cc(C)c4c(c3)Nc3ncnc(N5CCOCC5)c3CO4)CC2)C1 (centres unmarked) [compound 11]
> 10000	4.12 µM	0.0001	24.3	6460 nM									C=CC(=O)N1CC(N2CCC(c3cc(C)c4c(c3)Nc3ncnc(N5CCC(S(C)(=O)=O)C5)c3CO4)CC2)C1 (centres unmarked) [compound 65]
> 10000	0.255 µM	5.86e-05	230	603 nM									C=CC(=O)N1CC(N2CC[C@H](c3cc(C)c4c(c3)Nc3ncnc(N5CCOCC5)c3CO4)C2)C1 [compound 23]
	0.78 µM			1120 nM	7.3e-05 s⁻¹			93.6387				<5	C=CC(=O)N1CCC(N2CC(c3cc(C)c4c(c3)Nc3ncnc(N5CCOCC5)c3CO4)C2)C(F)C1 (centres unmarked) [compound 29]
> 10000	0.542 µM	8.14e-05	150	871 nM									C=CC(=O)N1CCC(N2CC(c3cc(Cl)c4c(c3)Nc3ncnc(C5CCOCC5)c3CO4)C2)CC1 [compound 19]
> 10000	0.529 µM	8.2e-05	155	380 nM									C=CC(=O)N1CC[C@H](N2CC(c3cc(C)c4c(c3)Nc3ncnc(N5CCOCC5)c3CO4)C2)C1 [compound 18]
> 10000	1.22 µM	6.34e-05	52.1	741 nM									C=CC(=O)N1CCC(N2CC[C@@H](c3cc(C)c4c(c3)Nc3ncnc(N5CCOCC5)c3CO4)C2)CC1 [compound 25]
> 10000	0.632 µM	5.72e-05	90.5	955 nM									C=CC(=O)N1CCC(N2CCC(c3ccc4c(c3)Nc3ncnc(N5CCOCC5)c3CO4)CC2)C(F)C1 (centres unmarked) [compound 15]
> 10000				2090 nM					0.72	0.000216	306		C=CC(=O)N1CC(N2CC[C@H](c3ccc4c(c3)Nc3ncnc(N5CCOCC5)c3CO4)C2)C1 (single isomer, unassigned) [compound 9]
> 10000	0.208 µM	6.38e-05	307	~617 nM									C=CC(=O)N1CC(N2CC[C@@H](c3cc(C)c4c(c3)Nc3ncnc(N5CCOCC5)c3CO4)C2)C1 [compound 22]
> 10000				1820 nM					0.38	0.000155	409		C=CC(=O)N1CC(N2CC[C@@H](c3ccc4c(c3)Nc3ncnc(N5CCOCC5)c3CO4)C2)C1 [compound 10]
